For orientation: TGI means the concentration at which net growth stops. For orientation: GI50 means the concentration at which growth is held to half of that of the control.

Common to all, as to assay: DTP human tumour cell line panel, 48 h
Assay [1] concerns M14 melanoma.
For assay [2], the system named is K-562 leukemia.
For assay [3], the system named is ACHN renal.
Assay [4] concerns SN12C renal.
In assay [5] the test system is SNB-19 CNS.
In assay [6] the test system is OVCAR-5 ovarian.
In assay [7] the test system is UACC-257 melanoma.
Assay [8] deals with SW-620 colon.
Assay [9] deals with SF-539 CNS.
Assay [10] has as its system MALME-3M melanoma.

“And” between values parts separate entries of the source, which are not always exact repeats. Equal values may be shown once.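 Values below derive from 48-hour exposures of cells grown in 96-well plates, with endpoints linearly interpolated between the two concentrations bracketing the appropriate inhibition level. GI50 = concentration required for 50% inhibition of growth. Definition used: TGI = concentration required for complete inhibition of growth.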

Take `OC(c1ccc(-c2ccccc2)cc1)(c1ccc(-c2ccccc2)cc1)c1ccc(-c2ccccc2)cc1`: the TGI in assay [1], in assay [2], in [3], in assay [4], in [5] and in [6] was > 100 µM each time. The TGI in assay [7] is > 100 µM.

In the case of `O=C1CS(=O)(=O)C(c2cccc(Oc3ccccc3)c2)N1c1cccc(Cl)c1Cl` (configuration not stated), the TGI in assay [8] is > 100 µM; in [1], > 100 µM; in [9], 46.6 µM; in assay [2] it was 46 µM; in assay [3] it was 43.6 µM; in assay [4], 44.6 µM. In addition, the TGI was 59.5 µM in assay [10], > 100 µM in [5], > 100 µM in assay [6] and 51.2 µM in [7].

For the molecule `CCN(CC)/C(=C\Cl)Nc1ccccn1`, the total growth inhibition concentration (TGI) in assay [8], in [1], in assay [9], in assay [2], in assay [3] and in assay [4] was > 100 µM throughout. Besides, the TGI in [10], in assay [5], in [6] and in assay [7] was > 100 µM throughout.

For the molecule `C=CCOCCCC(=O)C(=[N+]=[N-])C(=O)OC`, the TGI in assay [8], in assay [1], in assay [9], in assay [2], in assay [3] and in assay [4] was > 100 µM throughout. In addition, the TGI in assay [10], in assay [5], in assay [6] and in assay [7] was > 100 µM throughout.

With `Cc1c(Cl)c(=O)oc2cc(OCC(=O)c3ccccc3)ccc12`, the TGI in assay [8], in assay [1], in [9], in assay [2], in assay [3] and in assay [4] was > 100 µM each time. Further, the TGI in [10], in assay [5], in assay [6] and in assay [7] was > 100 µM in each case.

In the case of `CC(=O)C1(c2ccccc2)CCCN(C)CC1` (configuration not stated), the concentration for total growth inhibition (TGI) in [8], in assay [1], in assay [10], in [5], in assay [6] and in [7] was > 100 µM each time.

As to `CN(C)CCNc1c([N+](=O)[O-])cc2c3c(cccc13)C(=O)N(CCN(C)C)C2=O`, the TGI in assay [8] is 5.59 µM; in assay [9] it was 8.29 µM; in assay [2], 4.51 µM; in assay [4] it was 9.28 µM; in assay [10], 2.28 µM; in assay [5] it was 8.33 µM. Besides, the figures for the total growth inhibition concentration (TGI) in [6] and in assay [7] were 4.96 µM and 4.71 µM, respectively.

`COc1nc(C#CCCCC#N)nc(OC)n1`: the TGI is 32.5 µM in [8]; 47.8 µM in [1]; 53.7 µM in assay [9]; > 100 µM in [2]; 21.8 µM in assay [3]; 36.5 µM in [4]. Moreover, the TGI in [10] was 28.5 µM; in assay [5], > 100 µM; in assay [6] it was 27.8 µM; in assay [7] it was 45.2 µM.

On to `O=C1CC(N2C(=O)/C(=C/C(Cl)=C\c3ccc([N+](=O)[O-])cc3)SC2=S)C(=O)N1c1ccc(Cl)cc1` (configuration not stated), for which the GI50 was 0.508 µM in [8]; 2.11 µM in [1]; 1.69 µM in assay [9]; 0.692 µM in assay [2]; 1.69 µM in assay [4]; 3.09 µM in assay [10]. Also, the GI50 in assay [5] was 1.17 µM; in [7] it was 2.92 µM. Also, the TGI in [8] was 3.89 µM; in assay [1] it was 5.06 µM; in [9] it was 4.14 µM; in assay [2], 11.6 µM; in [4], 11.1 µM; in [10] it was 11.6 µM. For the same molecule, the concentration for total growth inhibition (TGI) in [5] is 2.97 µM; in assay [7] it was 66.5 µM.

Take `O=C(NN1C(=O)/C(=C/c2ccc(Cl)cc2)N=C1c1ccccc1)c1c(Cl)c(Cl)c(Cl)c(Cl)c1-c1nc2ccccc2[nH]1`: the TGI in [8] is > 100 µM; in assay [1], 68.8 µM; in assay [9], > 100 µM; in assay [2], 50 µM; in assay [3], 75.3 µM; in assay [4], 86.4 µM. The total growth inhibition concentration (TGI) in assay [10] is 54.6 µM; in assay [5], > 100 µM; in assay [6], > 100 µM.

For `O=c1c2c([nH]c3nccn13)CCCC2`, the total growth inhibition concentration (TGI) in assay [8], in assay [1], in assay [9], in assay [3], in [4] and in assay [10] was > 10 µM throughout. Further, the concentration for total growth inhibition (TGI) in [5] and in [6] was > 10 µM throughout.

On to `Cc1c(N)nc([C@H](CC(N)=O)NC[C@H](N)C(N)=O)nc1C(=O)N[C@H](C(=O)N[C@H](C)[C@@H](O)[C@H](C)C(=O)N[C@H](C(=O)NCCc1nc(-c2nc(C(=O)NCCC[S+](C)C)cs2)cs1)[C@@H](C)O)C(OC1OC(CO)C(O)C(O)C1OC1OC(CO)C(O)C(OC(N)=O)C1O)c1cnc[nH]1` (some centres not stated), for which the GI50 in assay [3] was 0.0135 µM and 0.0134 µM; in [10], 0.75 µM and 1.65 µM; in [5] it was 2.72 µM and 2.89 µM; in assay [7] it was 27.5 µM. Further, the TGI in [3] is 0.343 µM and 0.34 µM and 1.03 µM; in assay [4] it was 13.2 µM [middle of 4 runs]; in assay [10], 9.03 µM and 22.9 µM and 20.7 µM; in [5] it was 23 µM and 25 µM and > 100 µM; in [7] it was 24.6 µM and > 100 µM.

In the case of `C=C1C(C2(C)C=CC(=O)OC3(C)COC(=O)CC32)C(OC=O)C(OC(=O)C(O)C(C)CC)C2(C)C(c3ccoc3)CC(OC(C)=O)C12O` (configuration not stated), the TGI in [8], in assay [1], in assay [9], in assay [2], in assay [3] and in assay [4] was > 100 µM throughout. Further, the TGI in [5], in assay [6] and in [7] was > 100 µM in each case.

These data come from PubChem BioAssay (NCI).
